Test results from ChEMBL document CHEMBL5579827, “Discovery of orally bioavailable phenyltetrazolium derivatives for the acute treatment and the secondary prevention of ischemic stroke” (Eur J Med Chem, 2024).
Blank lines part the entries; values can stand above or below the molecule they belong to. Calls of active or inactive are those of the source. The calls are words filed in the database; no cut-off is given here.

Experiments:
N2a [1] = experiment: Neuroprotective activity against OGD/R induced cell injury in mouse N2a cells assessed as cell viability at 10 uM preincubated under hypoxic condition for 2 hrs and measured after 24 hrs (reference value: 28.66 to 30.22 %); format: functional; details: time 26 hrs, read-out: Activity
[2] = Metabolic stability in mouse liver microsomes assessed as half life at 50 uM preincubated with NADPH for 5 mins followed by compound addition and measured upto 60 mins by LC-MS/MS analysis; format: ADME, Microsome
[3] = Metabolic stability in rat liver microsomes assessed as half life at 50 uM preincubated with NADPH for 5 mins followed by compound addition and measured upto 60 mins by LC-MS/MS analysis; format: ADME, Microsome
[4] = Tmax in Sprague-Dawley rat at 10 mg/kg, po measured upto 8 hrs by LC-MS/MS analysis; format: ADME, organism-based; details: in vivo
Mus musculus [5] = experiment: Neuroprotective activity against tMCAO-reperfusion induced brain injury in iv dosed SPF C57 mouse model assessed as decrease in Bax expression measured after 24 hrs by Western blotting analysis; format: functional, organism-based; details: dose 3-30 mg/kg
[6] = Cmax in Sprague-Dawley rat at 10 mg/kg, po measured upto 8 hrs by LC-MS/MS analysis; format: ADME, organism-based; details: in vivo
[7] = AUC(0 to t) in ICR mouse at 10 mg/kg, po measured upto 8 hrs by LC-MS/MS analysis; format: ADME, organism-based; details: in vivo
[8] = Metabolic stability in human liver microsomes assessed as intrinsic clearance at 50 uM preincubated with NADPH for 5 mins followed by compound addition and measured upto 60 mins by LC-MS/MS analysis; format: ADME, Microsome; details: read-out: CLH
[9] = Metabolic stability in dog liver microsomes assessed as half life at 50 uM preincubated with NADPH for 5 mins followed by compound addition and measured upto 60 mins by LC-MS/MS analysis; format: ADME, Canis lupus familiaris, Microsome
Mus musculus [10] = experiment: Neuroprotective activity against photo-thrombotic SPF C57 mouse model assessed as improvement in motor function at 30 mg/kg, po administered daily for 7 days; format: functional, organism-based; details: time 7.0 day
[11] = Cmax in ICR mouse at 1 mg/kg, iv measured upto 8 hrs by LC-MS/MS analysis; format: ADME, organism-based; details: in vivo
[12] = AUC(0 to t) in ICR mouse at 1 mg/kg, iv measured upto 8 hrs by LC-MS/MS analysis; format: ADME, organism-based; details: in vivo
N2a [13] = experiment: Neuroprotective activity against OGD/R induced cell injury in mouse N2a cells assessed as decrease in caspase-3 activity incubated for 24 hrs; format: functional, cell-based; details: dose 0.1-100 µM
[14] = Half-life in ICR mouse at 10 mg/kg, po measured upto 8 hrs by LC-MS/MS analysis; format: ADME, organism-based; details: in vivo
[15] = Tmax in ICR mouse at 1 mg/kg, iv measured upto 8 hrs by LC-MS/MS analysis; format: ADME, organism-based; details: in vivo
[16] = Metabolic stability in monkey liver microsomes assessed as intrinsic clearance at 50 uM preincubated with NADPH for 5 mins followed by compound addition and measured upto 60 mins by LC-MS/MS analysis; format: ADME, Macaca mulatta, Microsome; details: rhesus monkey, read-out: CLH
Mus musculus [17] = experiment: Neuroprotective activity against tMCAO-reperfusion induced brain injury in iv dosed SPF C57 mouse model assessed as decrease in cytochrome C expression measured after 24 hrs by Western blotting analysis; format: functional, organism-based; details: dose 3-30 mg/kg
N2a [18] = experiment: Neuroprotective activity against OGD/R induced cell membrane integrity loss in mouse N2a cells assessed as reduction in LDH release at 0.1 to 100 uM incubated for 24 hrs; format: functional, cell-based; details: dose 0.1-100 µM
Mus musculus [19] = experiment: Neuroprotective activity against tMCAO-reperfusion induced brain injury in SPF C57 mouse model assessed as reduction in brain water content at 30 mg/kg, iv measured after 24 hrs; format: functional, organism-based
[20] = AUC(0 to t) in Sprague-Dawley rat at 10 mg/kg, po measured at 2 hrs by LC-MS/MS analysis; format: ADME, organism-based; details: in vivo
N2a [21] = experiment: Neuroprotective activity against OGD/R induced cell injury in mouse N2a cells assessed as reduction in apoptosis at 0.1 to 100 uM incubated for 24 hrs by TUNEL assay; format: functional, cell-based; details: dose 0.1-100 µM
Mus musculus [22] = experiment: Neuroprotective activity against tMCAO-reperfusion induced brain injury in SPF C57 mouse model assessed as reversal of reduced blood flow in semi-dark band area infarct volume at 3 to 30 mg/kg, iv measured after 24 hrs; format: functional, organism-based; details: dose 3-30 mg/kg
N2a [23] = experiment: Neuroprotective activity against OGD/R induced cell injury in mouse N2a cells assessed as inhibition of cell damage at 0.1 to 100 uM incubated for 24 hrs; format: functional, cell-based; details: dose 0.1-100 µM
[24] = Metabolic stability in rat liver microsomes assessed as intrinsic clearance at 50 uM preincubated with NADPH for 5 mins followed by compound addition and measured upto 60 mins by LC-MS/MS analysis; format: ADME, Microsome; details: read-out: CLH
Mus musculus [25] = species on record: Mus musculus; experiment: Neuroprotective activity against photo-thrombotic SPF C57 mouse model assessed as decrease in sensorimotor impairment measured after day 4 to 7; format: functional, organism-based
[26] = Cmax in Sprague-Dawley rat at 10 mg/kg, po measured at 2 hrs by LC-MS/MS analysis; format: ADME, organism-based; details: in vivo
[27] = Metabolic stability in dog liver microsomes assessed as intrinsic clearance at 50 uM preincubated with NADPH for 5 mins followed by compound addition and measured upto 60 mins by LC-MS/MS analysis; format: ADME, Canis lupus familiaris, Microsome; details: read-out: CLH
[28] = AUC(0 to t) in Sprague-Dawley rat at 10 mg/kg, po measured upto 8 hrs by LC-MS/MS analysis; format: ADME, organism-based; details: in vivo
[29] = AUC(0 to infinity) in ICR mouse at 10 mg/kg, po measured upto 8 hrs by LC-MS/MS analysis; format: ADME, organism-based; details: in vivo
[30] = Metabolic stability in human liver microsomes assessed as half life at 50 uM preincubated with NADPH for 5 mins followed by compound addition and measured upto 60 mins by LC-MS/MS analysis; format: ADME, Microsome
[31] = AUC(0 to infinity) in ICR mouse at 1 mg/kg, iv measured upto 8 hrs by LC-MS/MS analysis; format: ADME, organism-based; details: in vivo
[32] = Oral bioavailability in ICR mouse at 10 mg/kg measured upto 8 hrs by LC-MS/MS analysis; format: ADME, organism-based; details: in vivo
Mus musculus [33] = experiment: Neuroprotective activity against tMCAO-reperfusion induced brain injury in SPF C57 mouse model assessed as reduction in infarct volume at 30 mg/kg, iv measured after 24 hrs (reference value: 41.48%); format: functional; set-up: scale not given: the % may be the effect or the level left
Mus musculus [34] = experiment: Neuroprotective activity against photo-thrombotic SPF C57 mouse model assessed as change in motor function at 30 mg/kg, po measured after day 1 to 3; format: functional, organism-based
[35] = Metabolic stability in monkey liver microsomes assessed as half life at 50 uM preincubated with NADPH for 5 mins followed by compound addition and measured upto 60 mins by LC-MS/MS analysis; format: ADME, Macaca mulatta, Microsome; details: rhesus monkey
[36] = Half-life in Sprague-Dawley rat at 10 mg/kg, po measured upto 8 hrs by LC-MS/MS analysis; format: ADME, organism-based; details: in vivo
[37] = AUC(0 to infinity) in Sprague-Dawley rat at 10 mg/kg, po measured upto 8 hrs by LC-MS/MS analysis; format: ADME, organism-based; details: in vivo
[38] = Metabolic stability in mouse liver microsomes assessed as intrinsic clearance at 50 uM preincubated with NADPH for 5 mins followed by compound addition and measured upto 60 mins by LC-MS/MS analysis; format: ADME, Microsome; details: read-out: CLH
Mus musculus [39] = experiment: Neuroprotective activity against tMCAO-reperfusion induced brain injury in iv dosed SPF C57 mouse model assessed as decrease in cleaved caspase-3 expression measured after 24 hrs by Western blotting analysis; format: functional, organism-based; details: dose 3-30 mg/kg
[40] = Cmax in ICR mouse at 10 mg/kg, po measured upto 8 hrs by LC-MS/MS analysis; format: ADME, organism-based; details: in vivo
Mus musculus [41] = experiment: Neuroprotective activity against tMCAO-reperfusion induced brain injury in iv dosed SPF C57 mouse model assessed as reduction in infarction region measured after 24 hrs; format: functional, organism-based; details: dose 3-30 mg/kg
Mus musculus [42] = experiment: Neuroprotective activity against tMCAO-reperfusion induced brain injury in SPF C57 mouse model assessed as decrease in neurological deficit score at 30 mg/kg, iv measured after 24 hrs; format: functional
[43] = Tmax in ICR mouse at 10 mg/kg, po measured upto 8 hrs by LC-MS/MS analysis; format: ADME, organism-based; details: in vivo
Mus musculus [44] = experiment: Neuroprotective activity against tMCAO-reperfusion induced brain injury in SPF C57 mouse model assessed as reduction in infarct volume at 10 mg/kg, iv measured after 24 hrs; format: functional; set-up: scale not given: the % may be the effect or the level left

Structure (SMILES): CCCC(O)c1ccccc1-c1nn[nH]n1 (stereo not given)
viability at 10 µM (N2a [1]): 35.6%

half-life at 50 µM [2]: 15.6 min
half-life at 50 µM [3]: 38.2 min
Tmax ([4]; po, 10 mg/kg, 8 h): 120 min
Cmax ([6]; po, 10 mg/kg, 8 h): 1130 ng/mL
AUC(0-t) at 8 h [7]: 5240 ng·h/mL
microsomal CLint at 50 µM [8]: < 7.4 µL/min/mg
half-life at 50 µM [9]: > 186 min
Cmax [11]: 3760 ng/mL
AUC(0-t) at 8 h [12]: 550 ng·h/mL
half-life [14]: 30.6 min
Tmax [15]: 4.8 min
microsomal CLint at 50 µM [16]: < 7.4 µL/min/mg
AUCt [20]: 5240 ng·h/mL
microsomal CLint at 50 µM [24]: 36.3 µL/min/mg
Cmax [26]: 1070 ng/mL
microsomal CLint at 50 µM [27]: < 7.4 µL/min/mg
AUC(0-t) at 8 h [28]: 6990 ng·h/mL
AUC(0-inf) [29]: 5590 ng·h/mL
half-life at 50 µM [30]: > 186 min
AUC(0-inf) [31]: 550 ng·h/mL
bioavailability [32]: 94.9%
half-life at 50 µM [35]: > 186 min
t1/2 ([36]; po, 10 mg/kg, 8 h): 287 min
AUC ([37]; po, 10 mg/kg, 8 h): 11160 ng·h/mL
microsomal CLint at 50 µM [38]: 89.1 µL/min/mg
Cmax [40]: 8710 ng/mL
Tmax [43]: 15 min
Structure (SMILES): CCCCC(O)c1ccc(Br)cc1-c1nn[nH]n1 (stereo not given)
Activity (Mus musculus [5]): Dose-Dependent Effect
Activity (Mus musculus [10]): Active
Activity (N2a [13]): Dose-Dependent Effect
Activity (Mus musculus [17]): Dose-Dependent Effect
Activity (N2a [18]): Active
Activity (Mus musculus [19]): Active
Activity (N2a [21]): Active
Activity (Mus musculus [22]): Active
Activity (N2a [23]): Active
Activity (Mus musculus [25]): Dose-Dependent Effect
viability at 10 µM (N2a [1]): 56.6%
Activity (Mus musculus [33]): 9.59%
Activity (Mus musculus [34]): Active
Activity (Mus musculus [39]): Dose-Dependent Effect
Activity (Mus musculus [41]): Dose-Dependent Effect
Activity (Mus musculus [42]): 2.07
Activity (Mus musculus [44]): 18.8%

Structure (SMILES): CCCCC(O)c1ccccc1-c1cccs1 (stereo not given)
viability at 10 µM (N2a [1]): 35.4%

Structure (SMILES): CCCCC(O)c1ccc(Br)cc1-c1nnn(CCN(C)C)n1 (stereo not given)
viability at 10 µM (N2a [1]): 44%

Structure (SMILES): CCCCCC(O)c1ccccc1-c1nn[nH]n1 (stereo not given)
viability at 10 µM (N2a [1]): 35.6%

Structure (SMILES): CCCC(O)c1ccc(C2=CCCCC2)cc1-c1nn[nH]n1 (stereo not given)
viability at 10 µM (N2a [1]): 39.1%

Tmax ([4]; Sprague-Dawley, read-out: Tmax): 15 min
Cmax ([6]; Sprague-Dawley, read-out: Cmax): 13.1 ng/mL
AUC(0-t) at 8 h [28]: 39.9 ng·h/mL
half-life ([36]; Sprague-Dawley): 433 min
AUC(0-inf) ([37]; Sprague-Dawley): 71.5 ng·h/mL
Structure (SMILES): CCCCC(O)c1ccccc1-c1nnn(C)n1 (stereo not given)
viability at 10 µM (N2a [1]): 43.9%

Tmax ([4]; Sprague-Dawley, read-out: Tmax): 15 min
Structure (SMILES): CCCCC(O)c1ccc(Br)cc1-c1nnn(CC)n1 (stereo not given)
viability at 10 µM (N2a [1]): 53.6%

Tmax ([4]; Sprague-Dawley, read-out: Tmax): 15 min
AUC(0-t) at 8 h [28]: 2670 ng·h/mL
Structure (SMILES): CCCCC(O)c1cc(Br)ccc1-c1nn[nH]n1 (stereo not given)
viability at 10 µM (N2a [1]): 37.6%
